# US11512079B2, “Heterocycle substituted pyridine derivative antifungal agents” (Amplyx Pharmaceuticals, Inc., priority 2017, dated 2022)
# What was measured:
# C. neoformans strain H99 = assay: Murine model of cryptococcal meningitis, dosing in the presence of the pan-CYP inhibitor ABT, CD-1 mice; assay type: in vivo, Cryptococcus neoformans; details: for reduction of CFU in brain vs untreated control / reduction of CFU in lung vs untreated control: preliminary experiment, 100 mg/kg ABT PO 2 h prior to each dose, n=5
# Experimental: Efficacy of exemplary compounds in a murine model of cryptococcal meningitis when dosed in the presence of the pan-CYP inhibitor ABT. […] 100 mg/kg ABT was administered orally to male CD-1 mice 2 h prior to compound administration. Mice were injected with 6.9×10^4 CFU C. neoformans strain H99 per mouse via lateral tail vein at T=0 h. Treatment with each prodrug was initiated about 1 h post-infection by IP administration and continued daily for 7 days with 100 mg/kg ABT administered orally 2 h prior to each dose of compound. The mean log10 CFU/g brain and lung counts in untreated control mice were 7.83±0.09 and 4.67±0.88, respectively (FIG. 1).
# […] A 60 mg/kg dose QD without ABT was also evaluated as a control.
# Cryptococcal meningitis model. C. neoformans strain H99 was grown in YPD broth at 30° C. on a shaker (220 rpm) for 24 h, centrifuged (1980 ref) and washed twice in PBS, resuspended in PBS, and quantified by hemacytometric count. CD-1 male mice were infected with ˜5×10^4 CFU per mouse via lateral tail vein injection of 100 μL. Mice were weighed, and treatment was within 1 h after infection. Treatments were administered daily for seven days. Mice were weighed daily and observed for acute and chronic adverse symptoms. Mice were sacrificed on day 8, and brain and left lung were homogenized and cultured for quantitative determination of tissue burden (CFU per gram of tissue). Tissues were homogenized for 25 seconds in […] phosphate buffered saline using two 6.5 mm steel beads and a Mini-Beadbeater 16 (Biospec Products, Inc., Bartlesville, Okla.), and serially diluted in 10-fold steps. Aliquots ([…]) of homogenate were plated and incubated for 3 to 7 days at 37° C. Fungal burden data were log10 transformed and evaluated using Kruskal-Wallis tests with Dunn's Multiple Comparison Test for Post-hoc analysis (Prism 5; GraphPad Software, Inc., San Diego, Calif.). A P value of ≤0.05 is considered statistically significant.
# Candida albicans 90028 = assay: In vitro antifungal assay (Example IX), microdilution broth, MIC; assay type: cell-based; details: minimum inhibitory concentration (≥50% inhibition), 35° C., 40-48 h, RPMI1640
# Outline: (§1)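 Yeast inocula (2.5×10^3 cells/mL, RPMI1640) were exposed to twofold compound series reaching 2-0.0019 μg/mL final, per CLSI yeast methodology. Incubation at 35° C. ran 40-48 h for Candida albicans 90028 and 72 h for Cryptococcus neoformans H99. MIC endpoints were confirmed by absorbance at 600 nm.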
# [1] = system: Cryptococcus neoformans H99; assay: as above; assay type: cell-based; details: minimum inhibitory concentration (≥50% inhibition), 35° C., 72 h, RPMI1640
# Outline: as §1
# [2] = system: Rhizomucor pusillus 46342; assay: In vitro antifungal assay (Example IX), microdilution broth, MEC; assay type: cell-based; details: minimum effective concentration (shortening of hyphae), 35° C., 40-48 h, RPMI1640
# Outline: (§2)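 Read-out is the minimum effective concentration: lowest compound level causing shorter hyphae than in DMSO controls, echinocandin-style. Broth microdilution used conidia or spores harvested from agar plates, cleared of mycelium and clumps, at a final 1-2×10^4 spores/mL in RPMI1640.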
# [3] = system: Aspergillus fumigatus MYA3626; assay: as above; assay type: cell-based; details: minimum effective concentration (shortening of hyphae), 35° C., 40-48 h, RPMI1640
# Outline: as §2
# Cryptococcus gattii = assay: In vitro antifungal assay (Example IX), microdilution broth, MIC; assay type: cell-based; details: minimum inhibitory concentration (≥50% inhibition), 35° C., 72 h (Cryptococcus), RPMI1640
# Outline: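 MIC was determined from OD600 after 72 h at 35 °C for Cryptococcus, in RPMI1640 inoculated at 2.5×10^3 cells/mL. Compounds were tested as a 2-fold series from 2 to 0.0019 μg/mL final, added from DMSO intermediates at a 100-fold dilution.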
# [4] = in the presence of ABT, 20 mg/kg Ex. 172 prodrug, 60 mg/kg Ex. 173 prodrug, 80 mg/kg Compound 1
structure (smiles),measurement,setting,value
Nc1c(-c2cc(Cc3ccc(OCc4ccccc4)cc3)no2)ccc[n+]1COP(=O)([O-])O,log10 CFU/g brain reductions at doses of similar AUC (approximately 80 μg·h/mL),C. neoformans strain H99; [4],1.45 log10 CFU/g
same,log10 CFU/g lung reductions at doses of similar AUC (approximately 80 μg·h/mL),C. neoformans strain H99; [4],1.55 log10 CFU/g
same,reduction of CFU in brain vs untreated control,C. neoformans strain H99; 34 mg/kg QD IP 7 days,1.66 log10 CFU/g
same,reduction of CFU in lung vs untreated control,C. neoformans strain H99; 34 mg/kg QD IP 7 days,1.07 log10 CFU/g
same,reduction of CFU in brain vs untreated control,C. neoformans strain H99; 85 mg/kg QD IP 7 days,2.72 log10 CFU/g
same,reduction of CFU in lung vs untreated control,C. neoformans strain H99; 85 mg/kg QD IP 7 days,3.28 log10 CFU/g
"Nc1ncccc1-c1cc(Cc2ccc(OCc3ccncc3Cl)nc2)no1 [compound 218, 3-(3-((6-((3-chloropyridin-4-yl)methoxy)pyridin-3-yl)methyl)isoxazol-5-yl)pyridin-2-amine]",MIC,Candida albicans 90028,0.1 to 1 µg/mL
same,MIC,[1],> 1 µg/mL
same,minimal effective concentration,[2],> 1 µg/mL
same,minimal effective concentration,[3],0.1 to 1 µg/mL
same,MIC,Cryptococcus gattii,> 1 µg/mL
"Nc1ncccc1-c1cc(Cc2ccc(Cn3cc(C(F)(F)F)cn3)cc2)no1 [compound 5, 3-(3-(4-((4-(trifluoromethyl)-1H-pyrazol-1-yl)methyl)benzyl)isoxazol-5-yl)pyridin-2-amine]",MIC,Candida albicans 90028,0.1 to 1 µg/mL
same,MIC,[1],0.1 to 1 µg/mL
same,minimal effective concentration,[2],0.1 to 1 µg/mL
same,minimal effective concentration,[3],0.1 to 1 µg/mL
same,MIC,Cryptococcus gattii,0.1 to 1 µg/mL
"Nc1ncccc1-c1cc(Cc2ccc(Oc3ccc(F)cc3)nc2)no1 [Example 160, 3-(3-((6-(4-fluorophenoxy)pyridin-3-yl)methyl)isoxazol-5-yl)pyridin-2-amine]",MIC,Candida albicans 90028,0.1 to 1 µg/mL
same,MIC,[1],0.1 to 1 µg/mL
same,minimal effective concentration,[2],0.1 to 1 µg/mL
same,minimal effective concentration,[3],0.01 to 0.1 µg/mL
same,MIC,Cryptococcus gattii,0.1 to 1 µg/mL
"N#Cc1cccc(COc2ccc(Cc3cc(-c4cccnc4N)on3)cc2)n1 [compound 118, 6-((4-((5-(2-aminopyridin-3-yl)isoxazol-3-yl)methyl)phenoxy)methyl)picolinonitrile]",MIC,Candida albicans 90028,0.1 to 1 µg/mL
same,MIC,[1],0.1 to 1 µg/mL
same,minimal effective concentration,[2],> 1 µg/mL
same,minimal effective concentration,[3],0.1 to 1 µg/mL
same,MIC,Cryptococcus gattii,0.1 to 1 µg/mL
"Nc1ncccc1-c1cc(Cc2ccc(C(=O)c3ccccc3)cc2)no1 [compound 191, (4-((5-(2-aminopyridin-3-yl)isoxazol-3-yl)methyl)phenyl)(phenyl)methanone]",MIC,Candida albicans 90028,0.1 to 1 µg/mL
same,MIC,[1],0.1 to 1 µg/mL
same,minimal effective concentration,[2],0.1 to 1 µg/mL
same,minimal effective concentration,[3],0.01 to 0.1 µg/mL
same,MIC,Cryptococcus gattii,0.1 to 1 µg/mL
"Nc1ncccc1-c1cc(Cc2ccc(OCc3ccnc(Br)c3)nc2)no1 [compound 195, 3-(3-((6-((2-bromopyridin-4-yl)methoxy)pyridin-3-yl)methyl)isoxazol-5-yl)pyridin-2-amine]",MIC,Candida albicans 90028,0.1 to 1 µg/mL
same,MIC,[1],0.01 to 0.1 µg/mL
same,minimal effective concentration,[2],> 1 µg/mL
same,minimal effective concentration,[3],0.1 to 1 µg/mL
same,MIC,Cryptococcus gattii,0.01 to 0.1 µg/mL
"Nc1ncccc1-c1cc(Cc2ccc(Sc3ccccc3)nc2)no1 [compound 186, 3-(3-((6-(phenylthio)pyridin-3-yl)methyl)isoxazol-5-yl)pyridin-2-amine]",MIC,Candida albicans 90028,0.01 to 0.1 µg/mL
same,MIC,[1],0.1 to 1 µg/mL
same,minimal effective concentration,[2],> 1 µg/mL
same,minimal effective concentration,[3],0.01 to 0.1 µg/mL
same,MIC,Cryptococcus gattii,0.01 to 0.1 µg/mL
"C#CCCOc1ccc(Cc2cc(-c3cccnc3N)on2)cn1 [compound 225, 3-(3-((6-(but-3-yn-1-yloxy)pyridin-3-yl)methyl)isoxazol-5-yl)pyridin-2-amine]",MIC,Candida albicans 90028,0.1 to 1 µg/mL
same,MIC,[1],0.1 to 1 µg/mL
same,minimal effective concentration,[2],0.1 to 1 µg/mL
same,minimal effective concentration,[3],0.01 to 0.1 µg/mL
same,MIC,Cryptococcus gattii,0.1 to 1 µg/mL
"Nc1ncccc1-c1cc(Cc2ccc(Cc3ccco3)cc2)no1 [compound 121, 3-(3-(4-(furan-2-ylmethyl)benzyl)isoxazol-5-yl)pyridin-2-amine]",MIC,Candida albicans 90028,0.01 to 0.1 µg/mL
same,MIC,[1],0.01 to 0.1 µg/mL
same,minimal effective concentration,[2],0.01 to 0.1 µg/mL
same,minimal effective concentration,[3],≤ 0.01 µg/mL
same,MIC,Cryptococcus gattii,0.01 to 0.1 µg/mL
"CC(Oc1ccc(Cc2cc(-c3cccnc3N)on2)cn1)c1ccccn1 (centres unmarked) [compound 55, 3-(3-((6-(1-(pyridin-2-yl)ethoxy)pyridin-3-yl)methyl)isoxazol-5-yl)pyridin-2-amine]",MIC,Candida albicans 90028,0.1 to 1 µg/mL
same,MIC,[1],0.1 to 1 µg/mL
same,minimal effective concentration,[2],> 1 µg/mL
same,minimal effective concentration,[3],0.1 to 1 µg/mL
same,MIC,Cryptococcus gattii,0.1 to 1 µg/mL
"Nc1ncccc1-c1cc(Cc2ccc(OCc3csc(Cl)n3)nc2)no1 [compound 220, 3-(3-((6-((2-chlorothiazol-4-yl)methoxy)pyridin-3-yl)methyl)isoxazol-5-yl)pyridin-2-amine]",MIC,Candida albicans 90028,0.1 to 1 µg/mL
same,MIC,[1],0.1 to 1 µg/mL
same,minimal effective concentration,[2],0.1 to 1 µg/mL
same,minimal effective concentration,[3],0.1 to 1 µg/mL
same,MIC,Cryptococcus gattii,0.1 to 1 µg/mL
"Nc1ncccc1-c1cc(Cc2ccc(COc3cccc(F)c3)cc2)no1 [Example 169, 3-(3-(4-((3-fluorophenoxy)methyl)benzyl)isoxazol-5-yl)pyridin-2-amine]",MIC,Candida albicans 90028,0.01 to 0.1 µg/mL
same,MIC,[1],0.01 to 0.1 µg/mL
same,minimal effective concentration,[2],0.1 to 1 µg/mL
same,minimal effective concentration,[3],0.01 to 0.1 µg/mL
same,MIC,Cryptococcus gattii,0.01 to 0.1 µg/mL
"Nc1ncccc1-c1cc(Cc2ccc(Oc3nc(F)c(F)cc3F)cc2)no1 [compound 241, 3-(3-(4-((3,5,6-trifluoropyridin-2-yl)oxy)benzyl)isoxazol-5-yl)pyridin-2-amine]",MIC,Candida albicans 90028,0.1 to 1 µg/mL
same,MIC,[1],0.01 to 0.1 µg/mL
same,minimal effective concentration,[2],0.1 to 1 µg/mL
same,minimal effective concentration,[3],0.01 to 0.1 µg/mL
same,MIC,Cryptococcus gattii,0.01 to 0.1 µg/mL
"Nc1ncccc1-c1cc(Cc2ccc(OCc3cccc(Cl)n3)nc2)no1 [compound 222, 3-(3-((6-((6-chloropyridin-2-yl)methoxy)pyridin-3-yl)methyl)isoxazol-5-yl)pyridin-2-amine]",MIC,Candida albicans 90028,0.01 to 0.1 µg/mL
same,MIC,[1],0.01 to 0.1 µg/mL
same,minimal effective concentration,[2],> 1 µg/mL
same,minimal effective concentration,[3],0.01 to 0.1 µg/mL
same,MIC,Cryptococcus gattii,0.1 to 1 µg/mL
"Nc1ncccc1-c1cc(Cc2ccc(OCc3ccnc(Cl)c3)cc2)no1 [compound 117, 3-(3-(4-((2-chloropyridin-4-yl)methoxy)benzyl)isoxazol-5-yl)pyridin-2-amine]",MIC,Candida albicans 90028,0.1 to 1 µg/mL
same,MIC,[1],0.01 to 0.1 µg/mL
same,minimal effective concentration,[2],> 1 µg/mL
same,minimal effective concentration,[3],0.01 to 0.1 µg/mL
same,MIC,Cryptococcus gattii,≤ 0.01 µg/mL
"Nc1ncccc1-c1cc(Cc2ccc(Nc3ccc(F)c(F)c3F)nc2)no1 [compound 245, 5-((5-(2-aminopyridin-3-yl)isoxazol-3-yl)methyl)-N-(2,3,4-trifluorophenyl)pyridin-2-amine]",MIC,Candida albicans 90028,0.1 to 1 µg/mL
same,MIC,[1],0.1 to 1 µg/mL
same,minimal effective concentration,[2],> 1 µg/mL
same,minimal effective concentration,[3],0.1 to 1 µg/mL
same,MIC,Cryptococcus gattii,0.1 to 1 µg/mL
